One compound from US6825217B2, “Carbinols for the treatment of neuropathic dysfunction” (Endo Pharmaceuticals, Inc., priority 2001, dated 2004) can be followed below.

In data set [1] the target is T1, rat synaptosomal 5-HT Reuptake (Rattus norvegicus, UniProt P31652).
T1 construct: rat synaptosomal 5-HT and NE Reuptake; from tissue; host or cells: rat synaptosomes (rat brain preparations)
Briefly: Serotonin reuptake assay (rat synaptosomal 5-HT uptake). It counts as biochemical.

The subject of data set [2] is sigma receptor sites in the brain. Briefly: Activity at sigma receptor sites in the brain. It counts as binding.
Data set [3] is described as follows: Side effects at effective doses. The class given is in vivo. The note with it: at effective doses for neuropathic pain.
Data set [4] is described as follows: Chung model (tactile allodynia). The class given is in vivo, rat. The method, then:
This model for neuropathic pain was performed on rats using the surgical procedure described by Kim and Chung (1992) to induce an allodynic state. Briefly, the left L-5 and L-6 spinal nerves were isolated adjacent to the vertebral column and ligated with 6-0 silk suture distal to the dorsal root ganglion under isoflurane anesthesia. This model allows for spinal cord structural reorganization and growth of low threshold mechnoreceptor fibers from the spinal cord with synaptic connections and rewiring of the dorsal horn. This leads to spontaneous firing of invading sympathetic nerves and upregulation of receptors and voltage-dependent channels; i.e. mimics the development of allodynia (nociceptive response to a previously neutral stimulus). The rats were allowed a minimum of 7-days postoperative recovery period before testing.
To assess tactile thresholds in the Chung model, rats were placed in a clear plastic, wire mesh-bottomed cage, divided into individual compartments. Animals were allowed to acclimate and then baseline thresholds were assessed prior to drug treatment. To assess the 50% mechanical threshold for paw withdrawal, von Frey hairs were applied to the plantar mid-hindpaw, avoiding the tori (footpads). The eight von Frey hairs used are designated by [log (10*force required to bend hair, mg)] and range from 0.4-15.1 grams (#'s 3.61-5.18). Each hair was pressed perpendicularly against the paw with sufficient force to cause slight bending, and held for approximately 6-8 seconds. A positive response was noted if the paw was sharply withdrawn. Flinching immediately upon removal of the hair was also considered a positive response. Absence of a response (“−”) was cause to present the next consecutive stronger stimulus; a positive response (“+”) was cause to present the next weaker stimulus. Stimuli were presented successively until either six data points were collected, or the maximum or minimum stimulus was reached. If a minimum stimulus was reached and positive responses still occurred, the threshold was assigned an arbitrary minimum value of 0.25 grams; if a maximum stimulus was presented and no response occurred, a maximum threshold value of 15 grams was assigned. If a change in response occurs, either “−” to “+” or “+” to “−”, causing a change in the direction of stimulus presentation from descending to ascending or vice-versa, four additional data points were collected subsequent to the change.

A short description of data set [5]: Rat tooth pulp. It counts as in vivo. The note with it: unmarked entry of animal model table.
Data set [6] in a line: Monkey tail dip. It counts as in vivo. The note with it: unmarked entry of animal model table.
In data set [7] the test system is Bacterial Mutagenicity. As to the kind of experiment: In Vitro Bacterial Mutagenicity: Modified Ames Test. The class given is cell-based.
Data set [8] can be described thus: Fourteen-day Oral Dose Range Finding Study in Rats. It counts as in vivo, rat.

pIC50: −log10 of the molar value.

T1 sequence (P31652 whole entry): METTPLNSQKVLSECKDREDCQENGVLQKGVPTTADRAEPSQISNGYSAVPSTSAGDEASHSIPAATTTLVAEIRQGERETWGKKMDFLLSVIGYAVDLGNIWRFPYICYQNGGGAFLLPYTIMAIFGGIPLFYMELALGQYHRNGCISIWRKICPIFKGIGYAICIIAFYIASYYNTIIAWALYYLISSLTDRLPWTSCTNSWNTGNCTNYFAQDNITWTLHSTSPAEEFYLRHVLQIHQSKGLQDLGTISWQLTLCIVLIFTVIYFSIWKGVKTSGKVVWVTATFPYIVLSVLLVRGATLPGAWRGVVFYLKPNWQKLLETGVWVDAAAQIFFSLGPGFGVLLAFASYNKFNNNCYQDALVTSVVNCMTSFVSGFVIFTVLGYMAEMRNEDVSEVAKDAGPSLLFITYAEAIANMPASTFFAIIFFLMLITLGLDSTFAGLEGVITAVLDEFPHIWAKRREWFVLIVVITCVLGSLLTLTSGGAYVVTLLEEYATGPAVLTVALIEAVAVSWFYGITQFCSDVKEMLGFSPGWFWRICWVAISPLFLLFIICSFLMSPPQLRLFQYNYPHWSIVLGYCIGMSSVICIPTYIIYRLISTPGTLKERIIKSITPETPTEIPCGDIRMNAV

On to `CN1CCC(c2ccsc2)(C(C)(C)O)CC1` [Compound A, 4-(3-thienyl)-α,α,1-trimethyl-4-piperidinemethanol], for which the pIC50 (commonly the negative decadic logarithm of the IC50, by convention in mol/L) in data set [1] is 6.92. The uptake of serotonin entry in data set [1] (rat brain preparations) is reported as “inhibits uptake”. Moreover, the “activity at sigma receptor sites” value in data set [2] is listed as “does not show significant activity”. Further, the “anticholinergic side effects, sedation or other signs of motor impairment” value in data set [3] is “not accompanied by anticholinergic side effects, sedation or other signs of motor impairment”. In addition, the “effect upon arousal or motor function” value in data set [4] (at doses effective in formalin and Chung models) is reported as “no effect upon arousal or motor function”. Also, the “effect upon tactile allodynia arising from nerve injury” value in data set [4] (rat) is on record as “reliable dose dependent effect”. In addition, the “effects on tactile allodynia” value in data set [4] (rat, two hours post injection, doses 200 mg/kg and 100 mg/kg) is “statistically significant effects”. Further, the “activity in rat Tooth pulp model” value in data set [5] is “showed activity”. The “activity in monkey Tail dip model” value in data set [6] is on record as “showed activity”. In addition, the “In Vitro Bacterial Mutagenicity: Modified Ames Test” value in data set [7] was “Not mutagenic”. Besides, in data set [8], the “NOEL (exophthalamos)” value is given as “NOEL < 30 mg/kg”. Moreover, the NOAEL (usually the highest tested level that showed no adverse finding) at 14 day in data set [8] (rat, in vivo) stood at 100 mg/kg.
